Some test systems named below: OVCAR-8 ovarian; A498 renal; HS 578T breast; OVCAR-5 ovarian; SK-MEL-28 melanoma; U251 CNS; SF-539 CNS; SK-MEL-5 melanoma; OVCAR-4 ovarian; M14 melanoma; EKVX NSCLC; RPMI-8226 leukemia; CAKI-1 renal; SF-268 CNS.
Holding throughout (assay): inhibition of tumour cell growth, NCI panel, 48 h

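Tested at 5 concentrations; 48 h exposure; 96-well plates; endpoints linearly interpolated, else capped at highest concentration. The concentration for full growth arrest is given as TGI.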 Where a SMILES comes first, the peptide text is derived from it. [ ]: non-standard residue; d: D form. The star is where a group is joined. ξ: configuration not given here. ξD = NC(CC(=O)O)C(=O)O; Ac3c = NC1(C(=O)O)CC1; Boc = CC(C)(C)OC(=O)*; OtBu = CC(C)(C)O*

Take `CSc1nc(C#N)c(N)n1C`: the TGI with OVCAR-8 ovarian, in the test with A498 renal, in the test with HS 578T breast, in the test with OVCAR-5 ovarian, in the test with SK-MEL-28 melanoma and in the test on U251 CNS was more than 100 µM each time. The TGI with SF-539 CNS, in the test on SK-MEL-5 melanoma, in the test with OVCAR-4 ovarian, with M14 melanoma, in the test with EKVX NSCLC and with RPMI-8226 leukemia was more than 100 µM each time. The TGI in the test with CAKI-1 renal and in the test on SF-268 CNS was more than 100 µM each time.

Take `COC(=O)C1(NC(=O)C(CC(=O)OC(C)(C)C)NC(=O)OC(C)(C)C)CC1` (configuration not stated) (Boc-[ξD](OtBu)-[Ac3c]-OMe): the TGI in the test on OVCAR-8 ovarian, with A498 renal, in the test on HS 578T breast, with OVCAR-5 ovarian, in the test with SK-MEL-28 melanoma and in the test on U251 CNS was more than 100 µM each time. Also, the TGI in the test with SF-539 CNS, in the test on SK-MEL-5 melanoma, with OVCAR-4 ovarian, in the test on M14 melanoma, with EKVX NSCLC and with RPMI-8226 leukemia was more than 100 µM in each case. Moreover, the TGI in the test on CAKI-1 renal and in the test with SF-268 CNS was more than 100 µM throughout.

As for `COC(=O)/C(=C\c1ccco1)P(=O)(OC)OC`, the TGI in the test on OVCAR-8 ovarian was more than 100 µM; in the test on A498 renal, more than 100 µM; with HS 578T breast it was more than 100 µM; with OVCAR-5 ovarian, 31.8 µM; with SK-MEL-28 melanoma, more than 100 µM; with U251 CNS it was more than 100 µM. For the same molecule, the TGI in the test on SF-539 CNS is 65.9 µM; with SK-MEL-5 melanoma, more than 100 µM; in the test with OVCAR-4 ovarian it was 33.7 µM; in the test with M14 melanoma, more than 100 µM; in the test with EKVX NSCLC, more than 100 µM; in the test on RPMI-8226 leukemia, more than 100 µM. The TGI in the test on CAKI-1 renal was 65 µM; in the test with SF-268 CNS, more than 100 µM.

Turning to `COc1cc(C(c2cccc3ccccc23)N2C(=O)CCC2C(=O)NCc2ccccc2)cc(OC)c1OC` (configuration not stated), the TGI in the test on OVCAR-8 ovarian, with A498 renal, in the test on HS 578T breast, in the test on OVCAR-5 ovarian, with SK-MEL-28 melanoma and with U251 CNS was more than 100 µM throughout. Further, the TGI in the test with SF-539 CNS, in the test with SK-MEL-5 melanoma, in the test with OVCAR-4 ovarian, in the test with M14 melanoma, in the test on EKVX NSCLC and with RPMI-8226 leukemia was more than 100 µM in each case. For the same molecule, the TGI in the test with CAKI-1 renal and in the test with SF-268 CNS was more than 100 µM in each case.

Turning to `COc1ccc(/C(=N/Nc2nc3ccccc3[nH]2)C(=O)O)cc1`, the TGI in the test with OVCAR-8 ovarian, with A498 renal, with HS 578T breast, with OVCAR-5 ovarian, in the test on SK-MEL-28 melanoma and in the test on U251 CNS was more than 100 µM in each case. The TGI in the test on SF-539 CNS, in the test with SK-MEL-5 melanoma, in the test with OVCAR-4 ovarian, in the test with M14 melanoma, with EKVX NSCLC and in the test on RPMI-8226 leukemia was more than 100 µM in each case. Moreover, the TGI in the test on CAKI-1 renal and in the test with SF-268 CNS was more than 100 µM throughout.

With `CCOC(=O)/C(C#N)=C(/NNc1ccccc1)c1ccncc1C(=O)O`, the TGI in the test on OVCAR-8 ovarian, in the test with A498 renal, with HS 578T breast, with OVCAR-5 ovarian, in the test with SK-MEL-28 melanoma and in the test with U251 CNS was more than 100 µM in each case. Also, the TGI in the test on SF-539 CNS is more than 88.3 µM; with SK-MEL-5 melanoma, more than 48.9 µM; with OVCAR-4 ovarian it was more than 100 µM; in the test on M14 melanoma, more than 100 µM; in the test with EKVX NSCLC it was more than 100 µM; in the test with RPMI-8226 leukemia, more than 100 µM. For the same molecule, the TGI with CAKI-1 renal and in the test with SF-268 CNS was more than 100 µM throughout.

Regarding `COc1ccc2c(-c3ccc(OCCN(C)C)cc3)c(Oc3ccc(Cl)cc3)c(=O)oc2c1`, the TGI in the test on OVCAR-8 ovarian is more than 46.9 µM; in the test with A498 renal, 29.4 µM; in the test on HS 578T breast it was more than 54.6 µM; with OVCAR-5 ovarian it was 36.8 µM; in the test with SK-MEL-28 melanoma it was 3.57 µM; in the test with U251 CNS, 14.5 µM. For the same molecule, the TGI in the test with SF-539 CNS was more than 30.8 µM; with SK-MEL-5 melanoma, 3.19 µM; in the test with OVCAR-4 ovarian, more than 95.7 µM; in the test on M14 melanoma it was 3.23 µM; with EKVX NSCLC, 26.2 µM; with RPMI-8226 leukemia, 14.8 µM. Besides, the TGI in the test on CAKI-1 renal stood at 31 µM; with SF-268 CNS it was 32.9 µM.

`CC1(C)CCCCCCCCCC(C)(CCCCCCCCCCCCO)C1=O` (configuration not stated): the TGI in the test with OVCAR-8 ovarian was determined as 28.4 µM; in the test with A498 renal, 35.7 µM; with HS 578T breast it was 38 µM; with OVCAR-5 ovarian, 34.1 µM; with SK-MEL-28 melanoma, 32.6 µM; in the test on U251 CNS, 33 µM. The TGI in the test on SF-539 CNS stood at 32.5 µM; in the test with SK-MEL-5 melanoma it was 35.3 µM; with OVCAR-4 ovarian, 32.7 µM; with EKVX NSCLC it was 34.8 µM; in the test on RPMI-8226 leukemia it was 42.2 µM; in the test on CAKI-1 renal, 41.5 µM. In the test with SF-268 CNS, this molecule displayed a TGI of 32 µM.

As for `O=C1NC2CCCCC2N=C1/C(C(=O)c1ccccc1)=C(\O)c1ccccc1` (configuration not stated), the TGI with OVCAR-8 ovarian is 86.6 µM; with A498 renal, more than 100 µM; in the test on HS 578T breast it was more than 100 µM; with OVCAR-5 ovarian, more than 100 µM; in the test with SK-MEL-28 melanoma, more than 100 µM; in the test with U251 CNS, more than 100 µM. Further, the TGI with SF-539 CNS, in the test on SK-MEL-5 melanoma, in the test on M14 melanoma, in the test on EKVX NSCLC, in the test with RPMI-8226 leukemia and in the test with CAKI-1 renal was more than 100 µM throughout. In the test on SF-268 CNS, this molecule gave a TGI of more than 100 µM.

For `O/N=C1/C2CC3CC1(c1ccccc1)CC(/C3=N/O)/C2=N\O` (configuration not stated), the TGI in the test with OVCAR-8 ovarian, with A498 renal, in the test with HS 578T breast, with OVCAR-5 ovarian, with SK-MEL-28 melanoma and with U251 CNS was more than 100 µM throughout. Besides, the TGI in the test with SF-539 CNS, in the test with SK-MEL-5 melanoma, in the test on OVCAR-4 ovarian, in the test on M14 melanoma, in the test on EKVX NSCLC and with RPMI-8226 leukemia was more than 100 µM throughout. The TGI in the test with CAKI-1 renal is more than 100 µM.
